According to ChEMBL document CHEMBL1130335, “Comparative molecular field analysis of a series of paclitaxel analogues” (J Med Chem, 1997):

Assay: Measured activity expressed as ID50 (analogue)/ID50 (paclitaxel), where ID50 is the concentration of compound leading to 50% inhibition of the rate microtubule disassembly
Assay type: functional

Row | SMILES | Activity
1 | CC(=O)O[C@H]1C(=O)[C@]2(C)[C@@H](O)CC3OC[C@@]3(OC(C)=O)[C@H]2[C@H](OC(=O)C2CCCCC2)[C@]2(O)C[C@H](OC(=O)[C@H](O)[C@@H](NC(=O)c3ccccc3)c3ccccc3)C(C)=C1C2(C)C (stereo partly specified) | 1.7
2 | COC(=O)[C@@H](C(=O)O[C@H]1C[C@@]2(O)[C@@H](OC(=O)c3ccccc3)[C@H]3[C@](C)(C(=O)[C@H](O)C(=C1C)C2(C)C)[C@@H](O)CC1OC[C@]13OC(C)=O)[C@H](NC(=O)OC(C)(C)C)c1ccccc1 (stereo partly specified) | 10
3 | CC(=O)O[C@H]1C(=O)[C@]2(C)[C@@H](O)CC3OC[C@@]3(OC(C)=O)[C@H]2[C@H](OC(=O)c2ccccc2)[C@]2(O)C[C@H](OC(=O)[C@H](O)[C@H](N)c3ccccc3)C(C)=C1C2(C)C (stereo partly specified) | 44
4 | CC(=O)O[C@H]1C(=O)[C@]2(C)[C@@H](O)CC3OC[C@@]3(OC(C)=O)[C@H]2[C@H](OC(=O)c2ccccc2)[C@]2(O)C[C@H](OC(=O)[C@H](O)[C@H](NC(=O)c3ccc(C(F)(F)F)cc3)c3ccccc3)C(C)=C1C2(C)C (stereo partly specified) | 6
5 | CC[C@H](NC(=O)OC(C)(C)C)[C@@H](O)C(=O)O[C@H]1C[C@@]2(O)[C@@H](OC(=O)c3ccccc3)[C@H]3[C@@](C)([C@@H](O)CC4OC[C@]43OC(C)=O)[C@@H](O)[C@H](OC(C)=O)C(=C1C)C2(C)C (stereo partly specified) | 0.61
6 | CO[C@H]1[C@H](OC(C)=O)C2=C(C)[C@@H](OC(=O)[C@H](O)[C@@H](NC(=O)OC(C)(C)C)c3ccccc3)C[C@@](O)([C@@H](OC(=O)c3ccccc3)[C@H]3[C@@]1(C)[C@@H](O)CC1OC[C@]13OC(C)=O)C2(C)C (stereo partly specified) | 0.51
7 | CCCCOC(=O)N[C@H](c1ccccc1)[C@@H](O)C(=O)O[C@H]1C[C@@]2(O)[C@@H](OC(=O)c3ccccc3)[C@H]3[C@](C)(C(=O)[C@H](OC(C)=O)C(=C1C)C2(C)C)[C@@H](O)CC1OC[C@]13OC(C)=O (stereo partly specified) | 0.8
8 | CC(=O)O[C@H]1C(=O)[C@]2(C)[C@@H](O)CC3OC[C@@]3(OC(C)=O)[C@H]2[C@H](OC(=O)C2CCCCC2)[C@]2(O)C[C@H](OC(=O)[C@H](O)[C@@H](NC(=O)OC(C)(C)C)c3ccccc3)C(C)=C1C2(C)C (stereo partly specified) | 0.67
9 | CC(=O)O[C@@H]1C2=C(C)[C@@H](OC(=O)[C@H](O)[C@H](COc3ccccc3)NC(=O)c3ccccc3)C[C@@](O)([C@@H](OC(=O)c3ccccc3)[C@H]3[C@@](C)([C@@H](O)CC4OC[C@]43OC(C)=O)[C@H]1O)C2(C)C (stereo partly specified) | 5.81
10 | CC(=O)O[C@H]1C(=O)[C@]2(C)[C@@H](O)CC3OC[C@@]3(OC(C)=O)[C@H]2[C@H](OC(=O)c2ccccc2)[C@]2(O)C[C@H](OC(=O)[C@H](NC(=O)c3ccccc3)[C@H](O)c3ccccc3)C(C)=C1C2(C)C (stereo partly specified) | 10
11 | CC(=O)O[C@H]1C(=O)[C@]2(C)[C@@H](O)CC3OC[C@@]3(OC(C)=O)[C@H]2[C@H](OC(=O)c2ccccc2)[C@]2(O)C[C@H](OC(=O)[C@@H](O)[C@@H](NC(=O)OC(C)(C)C)c3ccccc3)C(C)=C1C2(C)C (stereo partly specified) | 30
12 | COC[C@H](NC(=O)c1ccccc1)[C@@H](O)C(=O)O[C@H]1C[C@@]2(O)[C@@H](OC(=O)c3ccccc3)[C@H]3[C@@](C)([C@@H](O)CC4OC[C@]43OC(C)=O)[C@@H](O)[C@H](OC(C)=O)C(=C1C)C2(C)C (stereo partly specified) | 3.14
13 | CC(=O)O[C@H]1C(=O)[C@]2(C)[C@@H](O)CC3OC[C@@]3(OC(C)=O)[C@H]2[C@H](OC(=O)c2ccccc2)[C@]2(O)C[C@H](OC(=O)[C@H](O)[C@H](NC(=O)OC(C)(C)C)c3ccccc3)C(C)=C1C2(C)C (stereo partly specified) | 0.5
14 | CC(=O)O[C@@]12COC1C[C@H](O)[C@@]1(C)C(=O)[C@H](O)C3=C(C)[C@@H](OC(=O)CCc4ccccc4)C[C@@](O)([C@@H](OC(=O)c4ccccc4)[C@@H]12)C3(C)C (stereo partly specified) | 17
15 | CC(=O)O[C@H]1C(=O)[C@]2(C)[C@@H](O)CC3OC[C@@]3(OC(C)=O)[C@H]2[C@H](OC(=O)c2ccccc2)[C@]2(O)C[C@H](OC(=O)[C@H](O)[C@H](NC(=O)c3ccccc3)c3cccc4ccccc34)C(C)=C1C2(C)C (stereo partly specified) | 7.1
16 | CC(=O)O[C@H]1C(=O)[C@]2(C)[C@@H](O)CC3OC[C@@]3(OC(C)=O)[C@H]2[C@H](OC(=O)c2ccccc2)[C@]2(O)C[C@H](OC(=O)[C@H](O)[C@H](NC(=O)C(C)(C)C)c3ccccc3)C(C)=C1C2(C)C (stereo partly specified) | 2.6
17 | CCCC[C@H](NC(=O)OC(C)(C)C)[C@@H](O)C(=O)O[C@H]1C[C@@]2(O)[C@@H](OC(=O)c3ccccc3)[C@H]3[C@@](C)([C@@H](O)CC4OC[C@]43OC(C)=O)[C@@H](O)[C@H](OC(C)=O)C(=C1C)C2(C)C (stereo partly specified) | 9.74
18 | COC(=O)[C@@H](C(=O)O[C@H]1C[C@@]2(O)[C@@H](OC(=O)c3ccccc3)[C@H]3[C@](C)(C(=O)[C@H](OC(C)=O)C(=C1C)C2(C)C)[C@@H](O)CC1OC[C@]13OC(C)=O)[C@H](NC(=O)c1ccccc1)c1ccccc1 (stereo partly specified) | 30

Row | SMILES | Activity
19 | CC(=O)O[C@H]1C(=O)[C@]2(C)[C@@H](O)CC3OC[C@@]3(OC(C)=O)[C@H]2[C@H](OC(=O)c2ccccc2)[C@]2(O)C[C@H](OC(=O)[C@H](O)[C@H](NC(=O)c3ccco3)c3ccccc3)C(C)=C1C2(C)C (stereo partly specified) | 0.8
20 | CC(=O)O[C@@]12COC1C[C@H](O)[C@@]1(C)C(=O)[C@H](O)C3=C(C)[C@@H](OC(=O)[C@@H](NC(=O)OC(C)(C)C)[C@@H](O)c4ccccc4)C[C@@](O)([C@@H](OC(=O)c4ccccc4)[C@@H]12)C3(C)C (stereo partly specified) | 160
21 | CC(=O)O[C@@]12COC1C[C@H](O)[C@@]1(C)C(=O)[C@H](O)C3=C(C)[C@@H](OC(=O)[C@H](O)[C@H](NC(=O)OC(C)(C)C)c4ccccc4)C[C@@](O)([C@@H](OC(=O)c4ccccc4)[C@@H]12)C3(C)C (stereo partly specified) | 0.6
22 | CC(=O)O[C@@H]1C2=C(C)[C@@H](OC(=O)[C@H](O)[C@@H](NC(=O)NC(C)(C)C)c3ccccc3)C[C@@](O)([C@@H](OC(=O)c3ccccc3)[C@H]3[C@@](C)([C@@H](O)CC4OC[C@]43OC(C)=O)[C@H]1O)C2(C)C (stereo partly specified) | 1.06
23 | CC(=O)O[C@H]1C(=O)[C@]2(C)[C@@H](O)CC3OC[C@@]3(OC(C)=O)[C@H]2[C@H](OC(=O)c2ccccc2)[C@]2(O)C[C@H](OC(=O)[C@@H](NC(=O)c3ccccc3)[C@@H](O)c3ccccc3)C(C)=C1C2(C)C (stereo partly specified) | 110
24 | CC(=O)O[C@H]1C(=O)[C@]2(C)[C@@H](O)CC3OC[C@@]3(OC(C)=O)[C@H]2[C@H](OC(=O)c2ccccc2)[C@]2(O)C[C@H](OC(=O)[C@H](O)[C@H](NC(=O)c3ccccc3)c3ccc(C)cc3)C(C)=C1C2(C)C (stereo partly specified) | 0.8
25 | CC(=O)O[C@H]1C(=O)[C@]2(C)[C@@H](O)CC3OC[C@@]3(OC(C)=O)[C@H]2[C@H](OC(=O)c2ccccc2)[C@]2(O)C[C@H](OC(=O)[C@H](O)[C@H](NC(=O)CC(C)(C)C)c3ccccc3)C(C)=C1C2(C)C (stereo partly specified) | 0.7
26 | C/C=C(/C)C(=O)N[C@H](c1ccccc1)[C@@H](O)C(=O)O[C@H]1C[C@@]2(O)[C@@H](OC(=O)c3ccccc3)[C@H]3[C@](C)(C(=O)[C@H](OC(C)=O)C(=C1C)C2(C)C)[C@@H](O)CC1OC[C@]13OC(C)=O (stereo partly specified) | 1.5
27 | CC(=O)O[C@@]12COC1C[C@H](O)[C@@]1(C)C(=O)[C@H](O)C3=C(C)[C@@H](OC(=O)[C@H](O)[C@@H](CC(C)C)NC(=O)OC(C)(C)C)C[C@@](O)([C@@H](OC(=O)c4ccccc4)[C@@H]12)C3(C)C (stereo partly specified) | 0.78
28 | CC(=O)O[C@@]12COC1C[C@H](O)[C@@]1(C)C(=O)[C@H](O)C3=C(C)[C@@H](OC(=O)C(O)C(O)c4ccccc4)C[C@@](O)([C@@H](OC(=O)c4ccccc4)[C@@H]12)C3(C)C (stereo partly specified) | 3
29 | CC(=O)O[C@H]1C(=O)[C@]2(C)[C@@H](O)CC3OC[C@@]3(OC(C)=O)[C@H]2[C@H](OC(=O)c2ccccc2)[C@]2(O)C[C@H](OC(=O)[C@H](O)[C@H](NC(=O)c3ccccc3)c3ccc(Cl)cc3)C(C)=C1C2(C)C (stereo partly specified) | 2.4
30 | CO[C@H]1CC2OC[C@@]2(OC(C)=O)[C@H]2[C@H](OC(=O)c3ccccc3)[C@]3(O)C[C@H](OC(=O)[C@H](O)[C@@H](NC(=O)c4ccccc4)c4ccccc4)C(C)=C([C@@H](OC(C)=O)[C@H](O)[C@]12C)C3(C)C (stereo partly specified) | 0.92
31 | CC(=O)O[C@@H]1C2=C(C)[C@@H](OC(=O)[C@H](O)[C@@H](NC(=O)OC(C)C)c3ccccc3)C[C@@](O)([C@@H](OC(=O)c3ccccc3)[C@H]3[C@@](C)([C@@H](O)CC4OC[C@]43OC(C)=O)[C@H]1O)C2(C)C (stereo partly specified) | 0.75
32 | CC(=O)O[C@H]1C(=O)[C@]2(C)[C@@H](O)CC3OC[C@@]3(OC(C)=O)[C@H]2[C@H](OC(=O)c2ccccc2)[C@]2(O)C[C@H](OC(=O)[C@H](O)[C@H](NC(=O)CC(C)C)c3ccccc3)C(C)=C1C2(C)C (stereo partly specified) | 1.9
33 | CC(=O)O[C@H]1C(=O)[C@]2(C)[C@@H](O)CC3OC[C@@]3(OC(C)=O)[C@H]2[C@H](OC(=O)c2ccccc2)[C@]2(O)C[C@H](OC(=O)[C@H](O)[C@H](NC(=O)c3ccccc3)c3ccc(Cl)c(Cl)c3)C(C)=C1C2(C)C (stereo partly specified) | 7.1
34 | CCOC(=O)N[C@@H](c1ccccc1)[C@@H](O)C(=O)O[C@H]1C[C@@]2(O)[C@@H](OC(=O)c3ccccc3)[C@H]3[C@@](C)([C@@H](O)CC4OC[C@]43OC(C)=O)[C@@H](O)[C@H](OC(C)=O)C(=C1C)C2(C)C (stereo partly specified) | 0.82
35 | COc1ccc(C(=O)N[C@H](c2ccccc2)[C@@H](O)C(=O)O[C@H]2C[C@@]3(O)[C@@H](OC(=O)c4ccccc4)[C@H]4[C@](C)(C(=O)[C@H](OC(C)=O)C(=C2C)C3(C)C)[C@@H](O)CC2OC[C@]24OC(C)=O)cc1 (stereo partly specified) | 0.5
36 | CC(=O)O[C@@]12COC1C[C@H](O)[C@@]1(C)C(=O)C[C@@]34O[C@]3(C)[C@@H](OC(=O)[C@H](O)[C@@H](NC(=O)c3ccccc3)c3ccccc3)C[C@@](O)([C@@H](OC(=O)c3ccccc3)[C@@H]12)C4(C)C (stereo partly specified) | 0.66
